# How the values were obtained:
# E. coli ATCC 11105 = experiment: Capture on magnetic microbeads coated with pepβ2GPI: C3 E. coli ATCC 11105; assay type: binding
# Method: (§1) To test the interaction of microbeads coated with β2GPI and the peptides derived from them, with bacteria present in the blood, 1 ml of blood culture is taken from each sample and placed in a 15 ml tube. 20 μl of microbeads are added and each tube is incubated at 37° C. with horizontal shaking. The tubes are then placed in a magnetic field which retains the microbeads on the wall and the supernatant is removed. The microbeads are then washed twice with sterile PBS, of the same composition as previously indicated; the microbeads are then resuspended in 150 μl of BTS culture medium. Two methods for detecting bacteria captured by microbeads were used: culture on TS agar and PCR For the detection of the bacterial capture by culture, 50 μl of the suspension of microbeads thus obtained are taken and they are spread out in a Petri dish containing TS agar. Petri dishes are incubated in an oven at 37° C. for 24 hours. The bacteria that have grown on the agar were then counted.
# (§2) The tested bacteria are: C3 E. coli ATCC 11105, C5 S. aureus ATCC 6538, H61 E. coli B6054, C1: E. coli ATCC 8739, H46: C. albicans 1 and H: 60 SCN
# (§3) The same protocol and primers as those described in example 9 were carried out.
# [1] = test system: BVDV virus (Bovine viral Diarrhea Virus); experiment: Capture of BVDV virus on magnetic microbeads coated with pepβ2GPI; assay type: binding
# Method: (§4) The pepβ2GPI were grafted onto the microbeads according to the supplier's recommendations. In summary, the microbeads are suspended in phosphate buffer at a pH of 6.0. The beads are then activated, for 15 minutes, in the presence of 1-ethyl-3-(3-Dimethylaminopropyl) carbodiimide and N-hydroxysuccinimide. After washing with HCl, 2 mM, the beads are suspended in a phosphate buffer at a pH of 7.5, containing the pepβ2GPI. The concentration of pepβ2GPI in this coupling buffer is 20 mg/L; the microbeads are incubated in the buffer with gentle and constant shaking at a temperature of 25° C. for 3 hours. The microbeads are then centrifuged at 1,500 rpm and the supernatant is removed; the centrifugation pellet is suspended in the same buffer as that used for the coupling of pepβ2GPI, which forms the suspension of microbeads coated with pepβ2GPI which we want to test.
# (§5) One hundred microliters of viral culture supernatant to be studied are placed in an Eppendorf tube with 900 microliters of Tris buffer at a pH of 7.5 and 10 microliters of microbeads. The tubes are shaken horizontally to mix the microbeads well, and each tube is incubated at 37° C. or at room temperature (RT=22° C.) for 30 minutes. In each tube, the microbeads are then separated from the liquid phase by means of a magnet, placed externally against the wall of the tube, and the viral RNA is extracted. The beads are brought into contact with a viral lysis buffer, included in an RNA extraction kit: QIAamp RNA viral kit, sold by QIAGEN and the viral RNA is isolated according to the seller's recommendations.
# (§6) The viruses tested are the HSV virus (Herpes Simplex virus) and the BVDV virus (Bovine viral Diarrhea Virus).
# (§7) The same protocol as that described in example 1 was carried out.
# [2] = test system: HSV virus (Herpes Simplex virus); experiment: Capture of HSV virus on magnetic microbeads coated with pepβ2GPI; assay type: binding
# Method: as §4, §5, §6, §7
# S. aureus ATCC 6538 = experiment: Capture on magnetic microbeads coated with pepβ2GPI: C5 S. aureus ATCC 6538; assay type: binding
# Method: as §1, §2, §3
# S. aureus, SA 378804 = experiment: Capture of S. aureus SA 378804 on magnetic microbeads, culture and counting; assay type: binding, Staphylococcus aureus; details: S. aureus SA 378804 colonies from captured beads
# Method: One ml of the culture of bacteria to be studied is placed in a hemolysis tube. 100 μl of buffer are added, the trade name of which is TTGB, then 20 μl of microbeads. The tube is stirred horizontally, to mix the microbeads well, and incubated at 37° C. or at room temperature (TA=22° C.) for half an hour. At the end of the incubation, the microbeads are separated from the liquid phase by means of a magnet, placed externally against the wall of the tube. The microbeads are then washed twice with LB medium and then resuspended in 1 ml of BTS culture medium (Tripticase-Soy broth) having the following formulation: […]
# This culture medium is brought to a boil and then autoclaved, to make it sterile, before use. 20 μl of the microbead suspension are taken and spread in a Petri dish containing TS agar (Trypticase-Soya agar) having the following formulation: […]
# The Petri dishes are incubated at +37° C. for 24 hours. The bacteria that have grown on the agar are then counted.
# The used bacterium is a strain of Staphylococcus aureus (S. aureus), SA 378804, isolated from the wound of the foot of a diabetic person, Sotto et al., Diabetes Care (2008) 31 (12), p. 2318-24. The same experiment as that described in the previous example was carried out.
Molecule,Capture of C3 E. coli ATCC 11105 (E. coli ATCC 11105),Capture of BVDV virus [1],Capture of HSV virus [2],Capture of C5 S. aureus ATCC 6538 (S. aureus ATCC 6538),"% compared to β2GPI (S. aureus, SA 378804)"
H-((SSLAFWK)2-K)2-K—NH2 [Peptide P11],43%,266%,123%,63%,
"β2GPI: plasma glycoprotein called β2-glycoprotein I, grafted on beads as the reference (protein, UniProt P02749 20-345, looked up, grafted on beads) Beta-2-glycoprotein 1: GRTCPKPDDLPFSTVVPLKTFYEPGEEITYSCKPGYVSRGGMRKFICPLTGLWPINTLKCTPRVCPFAGILENGAVRYTTFEYPNTISFSCNTGFYLNGADSAKCTEEGKWSPELPVCAPIICPPPSIPTFATLRVYKPSAGNNSLYRDTAVFECLPQHAMFGNDTITCTTHGNWTKLPECREVKCPFPSRPDNGFVNYPAKPTLYYKDKATFGCHDGYSLDGPEEIECTKLGNWSAMPSCKASCKVPVKKATVVYQGERVKIQEKFKNGMLHGDKVSFFCKNKEKKCSYTEDAQCIDGTIEVPKCFKEHSSLAFWKTDASDVKPC",,,,,100%

# Reference: US20240002470A1, “Method for separation and/or detection and/or in vitro quantification of infectious compounds in biological material” (priority 2020, published 2024)
